Among the data in ChEMBL document CHEMBL3588845, “Protozoan Parasite Growth Inhibitors Discovered by Cross-Screening Yield Potent Scaffolds for Lead Discovery” (J Med Chem, 2015) are EC50 and CC50 values, retold here.

By EC50 is commonly meant the concentration at which the effect is half-maximal.

Series [1] concerns Trypanosoma cruzi. In words: Antiparasite activity against Trypanosoma cruzi Tulahuen expressing beta-galactosidase assessed as growth inhibition incubated for 96 hrs by CPRG dye based assay. The format is functional, organism-based.
The nature of series [2]: Toxicity against human HepG2 cells incubated for 48 hrs by MTT assay. The format is cell-based. The note with it: read-out: TC50. On the technique in general: Formazan colour is commonly taken as a measure of viable cells.
Series [3] concerns Leishmania major. Kind of series: Antiparasite activity against luciferase-expressing Leishmania major amastigotes isolated from infected in mouse RAW264.7 cells assessed as growth inhibition incubated for 96 hrs by luciferase reporter gene assay. Type of series: functional, organism-based. Conditions: RAW264.7, 96 h.
Series [4] has as its system Leishmania major. In words: Antiparasite activity against Leishmania major promastigotes assessed as growth inhibition incubated for 44 hrs by alamar blue dye based fluorescence assay. The format is functional, organism-based. On the technique in general: Resazurin is reduced to fluorescent resorufin, in cell work by metabolically active cells.
Series [5] deals with Plasmodium falciparum. In words: Antiparasite activity against Plasmodium falciparum D6 assessed as growth inhibition incubated for 72 hrs by SYBR green fluorescence assay. The format is functional, organism-based. Conditions: D6, 72 h.
The test system of series [6] is Trypanosoma brucei. In words: Antiparasite activity against Trypanosoma brucei 427 assessed as growth inhibition incubated for 48 hrs by PrestoBlue based fluorescence assay. Conditions: Trypanosoma brucei, 427, 48 h. The format is functional, organism-based.
Series [7] deals with Plasmodium falciparum. In words: Antiparasite activity against drug resistant Plasmodium falciparum C235 assessed as growth inhibition incubated for 72 hrs by SYBR green fluorescence assay. The format is functional, organism-based. Conditions: C235, 72 h.
The subject of series [8] is Plasmodium falciparum. In words: Antiparasite activity against drug resistant Plasmodium falciparum W2 assessed as growth inhibition incubated for 72 hrs by SYBR green fluorescence assay. Type of series: functional, organism-based. Conditions: W2, 72 h.

SMILES strings stand for the structures.

As for `CN1CCCN(S(=O)(=O)c2ccc(-c3ccc4ncnc(Nc5ccc(OCc6cccc(F)c6)c(Cl)c5)c4c3)cc2)CC1`, the EC50 in series [1] stood at 510 nM; in series [3], 2100 nM; in series [4], 3600 nM; in series [5] it was 46 nM. In addition, the CC50 at 48 h in series [2] was 1100 nM.
Consider `CN1CCN(S(=O)(=O)c2ccc(-c3cc4c(Nc5ccc(OCc6cccc(F)c6)c(Cl)c5)ncnc4s3)cc2)CC1`, for which the CC50 at 48 h in series [2] was more than 15000 nM.
Regarding `CN1CCCN(S(=O)(=O)c2ccc(-c3cc4ncnc(Nc5ccc(OCc6cccc(F)c6)c(Cl)c5)c4s3)cc2)CC1`, the CC50 at 48 h in series [2] is more than 15000 nM.
Take `CN1CCCN(S(=O)(=O)c2ccc(-c3cc4c(Nc5ccc(OCc6cccc(F)c6)c(Cl)c5)ncnc4s3)cc2)CC1`: the CC50 at 48 h in series [2] is more than 15000 nM.
For the molecule `Fc1cccc(COc2ccc(Nc3ccnc4ccc(-c5cccc(N6CCOCC6)c5)cc34)cc2Cl)c1`, the EC50 in series [6] was found to be 1000 nM; in series [7], 43 nM; in series [1], 6600 nM; in series [8] it was 96 nM; in series [3], 4000 nM; in series [4] it was 900 nM. Besides, the EC50 in series [5] came to 35 nM. The CC50 at 48 h in series [2] was 10000 nM.
Regarding `Fc1cccc(COc2ccc(Nc3ccnc4cc(-c5cccc(N6CCOCC6)c5)ccc34)cc2Cl)c1`, the EC50 in series [6] worked out at 1200 nM; in series [7] it was 80 nM; in series [1], 2700 nM; in series [8], 180 nM; in series [3], 3700 nM; in series [4] it was 1400 nM. The EC50 in series [5] was 61 nM. In addition, the CC50 at 48 h in series [2] is more than 5000 nM.
Regarding `O=S(=O)(c1ccc(-c2ccc3c(Nc4ccc(OCc5ccccc5)c(Cl)c4)ccnc3c2)cc1)N1CCOCC1`, the EC50 in series [6] is 240 nM; in series [7], 18 nM; in series [1], 3500 nM; in series [8], 44 nM; in series [3] it was more than 1500 nM; in series [4], more than 1500 nM. Besides, the EC50 in series [5] was found to be 16 nM. Also, the CC50 at 48 h in series [2] is more than 3000 nM.
For the molecule `CN1CCN(S(=O)(=O)c2ccc(-c3ccc4nccc(Nc5ccc(OCc6cccc(F)c6)c(Cl)c5)c4c3)cc2)CC1`, the EC50 is 460 nM in series [6]; more than 16000 nM in series [7]; 5300 nM in series [1]; more than 16000 nM in series [8]; 2000 nM in series [3]; 600 nM in series [4]. Besides, the EC50 in series [5] is more than 16000 nM. The CC50 at 48 h in series [2] turned out to be 6400 nM.
Regarding `CN1CCCN(S(=O)(=O)c2ccc(-c3ccc4nccc(Nc5ccc(OCc6cccc(F)c6)c(Cl)c5)c4c3)cc2)CC1`, the EC50 in series [6] came out at 140 nM; in series [7], 110 nM; in series [1], 930 nM; in series [8], 81 nM; in series [3] it was 2300 nM; in series [4], 400 nM. Also, in series [5], the EC50 was 86 nM. In addition, in series [2], the CC50 at 48 h amounted to 4300 nM.
On to `CN1CCCN(S(=O)(=O)c2ccc(-c3ccc4c(Nc5ccc(OCc6cccc(F)c6)c(Cl)c5)ccnc4c3)cc2)CC1`, for which the EC50 in series [6] turned out to be 87 nM; in series [7], 67 nM; in series [1], 730 nM; in series [8], 66 nM; in series [3], 890 nM; in series [4], 400 nM. For the same molecule, the EC50 in series [5] was 94 nM. The CC50 at 48 h in series [2] was 5000 nM.
For `O=S(=O)(c1ccc(-c2ccc3ccnc(Nc4ccc(OCc5ccccc5)c(Cl)c4)c3c2)cc1)N1CCOCC1`, the EC50 is more than 2500 nM in series [6]; 4000 nM in series [7]; more than 50000 nM in series [1]; 5500 nM in series [8]; more than 15000 nM in series [3]; more than 15000 nM in series [4]. Further, in series [5], the EC50 is 870 nM. For the same molecule, the CC50 at 48 h in series [2] is more than 25000 nM.
For the molecule `O=S(=O)(c1ccc(-c2ccc3c(Nc4ccc(OCc5ccccc5)c(Cl)c4)nccc3c2)cc1)N1CCOCC1`, the EC50 was 91 nM in series [6]; 3400 nM in series [7]; more than 50000 nM in series [1]; 3400 nM in series [8]; more than 3000 nM in series [3]; more than 15000 nM in series [4]. Besides, the EC50 in series [5] stood at 3400 nM. The CC50 at 48 h in series [2] was more than 5000 nM.
Take `CN1CCN(S(=O)(=O)c2ccc(-c3ccc4ccnc(Nc5ccc(OCc6cccc(F)c6)c(Cl)c5)c4c3)cc2)CC1`: the EC50 in series [6] was 1800 nM; in series [7], 89 nM; in series [1], more than 50000 nM; in series [8] it was 200 nM; in series [3] it was more than 15000 nM; in series [4], more than 15000 nM. Besides, in series [5], the EC50 turned out to be 40 nM. Besides, the CC50 at 48 h in series [2] was more than 15000 nM.
On to `CN1CCN(S(=O)(=O)c2ccc(-c3ccc4c(Nc5ccc(OCc6cccc(F)c6)c(Cl)c5)nccc4c3)cc2)CC1`, for which the EC50 in series [6] is 100 nM; in series [7] it was 180 nM; in series [1] it was more than 50000 nM; in series [8] it was 360 nM; in series [3], more than 15000 nM; in series [4], 2700 nM. Moreover, in series [5], the EC50 came to 110 nM. The CC50 at 48 h in series [2] was more than 15000 nM.
As to `CN1CCCN(S(=O)(=O)c2ccc(-c3ccc4ccnc(Nc5ccc(OCc6cccc(F)c6)c(Cl)c5)c4c3)cc2)CC1`, the EC50 stood at 730 nM in series [6]; 100 nM in series [7]; 4700 nM in series [1]; 270 nM in series [8]; 2200 nM in series [3]; 1300 nM in series [4]. Besides, the EC50 in series [5] is 86 nM. In addition, the CC50 at 48 h in series [2] is more than 15000 nM.
In the case of `CN1CCCN(S(=O)(=O)c2ccc(-c3ccc4c(Nc5ccc(OCc6cccc(F)c6)c(Cl)c5)nccc4c3)cc2)CC1`, the EC50 in series [6] stood at 390 nM; in series [7] it was 1000 nM; in series [1], 33000 nM; in series [8], 2200 nM; in series [3] it was 4400 nM; in series [4] it was 440 nM. Further, the EC50 in series [5] was determined as 410 nM. The CC50 at 48 h in series [2] is more than 15000 nM.
In the case of `Fc1cccc(COc2ccc(Nc3cnnc4ccc(-c5cccc(N6CCOCC6)c5)cc34)cc2Cl)c1`, the EC50 is 1100 nM in series [6]; 690 nM in series [7]; more than 50000 nM in series [1]; 1500 nM in series [8]; more than 15000 nM in series [3]; more than 15000 nM in series [4]. For the same molecule, the EC50 in series [5] was found to be 540 nM. For the same molecule, the CC50 at 48 h in series [2] is more than 15000 nM.
For the molecule `Fc1cccc(COc2ccc(Nc3cnnc4cc(-c5cccc(N6CCOCC6)c5)ccc34)cc2Cl)c1`, the EC50 in series [6] was 890 nM; in series [7] it was 410 nM; in series [1] it was 45000 nM; in series [8], 230 nM; in series [3], more than 15000 nM; in series [4], 9800 nM. In series [5], the EC50 worked out at 200 nM. In series [2], the CC50 at 48 h came out at 11000 nM.
For `O=S(=O)(c1ccc(-c2ccc3nncc(Nc4ccc(OCc5ccccc5)c(Cl)c4)c3c2)cc1)N1CCOCC1`, the EC50 in series [6] was 1200 nM; in series [7], 1400 nM; in series [1] it was more than 50000 nM; in series [8], 940 nM; in series [3] it was more than 15000 nM; in series [4], more than 15000 nM. The EC50 in series [5] is 820 nM. The CC50 at 48 h in series [2] was more than 15000 nM.
For the molecule `O=S(=O)(c1ccc(-c2ccc3c(Nc4ccc(OCc5ccccc5)c(Cl)c4)cnnc3c2)cc1)N1CCOCC1`, the EC50 in series [6] was 1200 nM; in series [7] it was 300 nM; in series [1], 15000 nM; in series [8] it was 530 nM; in series [3], more than 15000 nM; in series [4], more than 15000 nM. Besides, in series [5], the EC50 was found to be 150 nM. Moreover, in series [2], the CC50 at 48 h was more than 11000 nM.
Regarding `CN1CCN(S(=O)(=O)c2ccc(-c3ccc4nncc(Nc5ccc(OCc6cccc(F)c6)c(Cl)c5)c4c3)cc2)CC1`, the EC50 in series [6] was 980 nM; in series [7], 140 nM; in series [1], more than 50000 nM; in series [8] it was 290 nM; in series [3], 1900 nM; in series [4] it was more than 15000 nM. In addition, in series [5], the EC50 was 130 nM. The CC50 at 48 h in series [2] was more than 15000 nM.
Turning to `Fc1cccc(COc2ccc(Nc3ncnc4cc(-c5cccc(N6CCOCC6)c5)sc34)cc2Cl)c1`, the CC50 at 48 h in series [2] was more than 15000 nM.
Same read-out and setting: for `Fc1cccc(COc2ccc(Nc3ncnc4sc(-c5cccc(N6CCOCC6)c5)cc34)cc2Cl)c1` the value was more than 15000 nM; for `O=S(=O)(c1ccc(-c2cc3ncnc(Nc4ccc(OCc5ccccc5)c(Cl)c4)c3s2)cc1)N1CCOCC1`, more than 5000 nM; for `O=S(=O)(c1ccc(-c2cc3c(Nc4ccc(OCc5ccccc5)c(Cl)c4)ncnc3s2)cc1)N1CCOCC1`, more than 15000 nM.
The same measure, in the same setting: the figure for `CN1CCN(S(=O)(=O)c2ccc(-c3cc4ncnc(Nc5ccc(OCc6cccc(F)c6)c(Cl)c5)c4s3)cc2)CC1` is more than 15000 nM.
In the case of `C[C@@H]1[C@H](O)[C@@H](C)/C=C/C=C/C=C/C=C/C=C/C=C/C=C/[C@H](O[C@@H]2O[C@H](C)[C@@H](O)[C@H](N)[C@@H]2O)C[C@@H]2O[C@](O)(C[C@@H](O)C[C@@H](O)[C@H](O)CC[C@@H](O)C[C@@H](O)CC(=O)O[C@H]1C)C[C@H](O)[C@H]2C(=O)O` [AMPHOTERICIN B], the EC50 in series [3] was determined as 47 nM; in series [4] it was 89 nM.
As for `O=C(Cn1ccnc1[N+](=O)[O-])NCc1ccccc1` [BENZNIDAZOLE], the EC50 in series [1] worked out at 1200 nM.
With `Cc1ccc(C(=O)Nc2ccc(S(=O)(=O)O)c3cc(S(=O)(=O)O)cc(S(=O)(=O)O)c23)cc1NC(=O)c1cccc(NC(=O)Nc2cccc(C(=O)Nc3cc(C(=O)Nc4ccc(S(=O)(=O)O)c5cc(S(=O)(=O)O)cc(S(=O)(=O)O)c45)ccc3C)c2)c1` [SURAMIN], in series [6], the EC50 was 40 nM.
